Test results from patent US8394442B2, “Process for the preparation of a flavoring concentrate, and a flavoring concentrate” (SYMRISE AG, priority 2007, dated 2013).
Where two headings read alike, the source gives them in different places.

Columns and labels:
[1] = log Pow* calculated by Formula 2 from log Pow and the polarity parameter P′(x) of the ethanol/water mixture
[2] = log Pow: distribution coefficient between 1-octanol and water; details: 1-octanol/water
Source text: Log Pow*=log Pow*−x*P′(x)/log Pow Formula 2: • where log Pow is the decimal logarithm of the distribution coefficient of a substance between 1-octanol and water, • x is the resulting solvent proportion based on the total volume proportion, normalized as 1.0, and • P′(x) is the polarity parameter for the corresponding solvent for the solvent proportion x.

[3] = solvent ethanol, proportion 10%
[4] = solvent ethanol, proportion 30%
[5] = solvent ethanol, proportion 40%
[6] = solvent ethanol, proportion 50%
[7] = solvent ethanol, proportion 60%
[8] = solvent ethanol, proportion 70%
[9] = solvent ethanol, proportion 80%
[10] = solvent ethanol, proportion 90%
[11] = solvent ethanol, proportion 100%

| Structure (SMILES) | log Pow* (P′ 2%) ([1]; solvent ethanol, proportion 2%) | log Pow* (P′ 4%) ([1]; solvent ethanol, proportion 4%) | log Pow* (P′ 6%) ([1]; solvent ethanol, proportion 6%) | log Pow* (P′ 8%) ([1]; solvent ethanol, proportion 8%) | log Pow* (P′ 10%) [1, 3] | log Pow* (P′ 30%) [1, 4] | log Pow* (P′ 40%) [1, 5] | log Pow* (P′ 50%) [1, 6] | log Pow* (P′ 60%) [1, 7] | log Pow* (P′ 70%) [1, 8] | log Pow* (P′ 80%) [1, 9] | log Pow* (P′ 90%) [1, 10] | log Pow* (P′ 100%) [1, 11] | log Pow [2] | other results |
| --- | --- | --- | --- | --- | --- | --- | --- | --- | --- | --- | --- | --- | --- | --- | --- |
| CCOC(=O)C(C)CC (centres unmarked) [Ethylmethylbutyrate-2] | 2.30 | 2.22 | 2.14 | 2.07 | 2.00 | 1.47 | 1.27 | 1.11 | 0.97 | 0.85 | 0.75 | 0.65 | 0.57 | 2.38 |  |
| CCCSSC [Methylpropyldisulfide] |  |  |  |  |  |  |  |  |  |  |  |  |  | 2.83 | log Pow* (P′ 2%) [1]: 2.76; log Pow* (P′ 4%) [1]: 2.69; log Pow* (P′ 6%) [1]: 2.63; log Pow* (P′ 8%) [1]: 2.57; log Pow* (P′ 10%) [1]: 2.51; log Pow* (P′ 30%) [1]: 2.06; log Pow* (P′ 40%) [1]: 1.90; log Pow* (P′ 50%) [1]: 1.76; log Pow* (P′ 60%) [1]: 1.64; log Pow* (P′ 70%) [1]: 1.54; log Pow* (P′ 80%) [1]: 1.46; log Pow* (P′ 90%) [1]: 1.38; log Pow* (P′ 100%) [1]: 1.31 |
| CCCCCCC1CCC(=O)O1 (centres unmarked) [gamma-decalactone] | 2.30 | 2.22 | 2.14 | 2.07 | 2.00 | 1.47 | 1.27 | 1.11 | 0.97 | 0.85 | 0.75 | 0.65 | 0.57 | 2.38 |  |
| CCC(C)CO (centres unmarked) [2-mebutanol, 2-methylbutanol] | 1.14 | 0.99 | 0.85 | 0.72 | 0.59 | −0.39 | −0.75 | −1.05 | −1.31 | −1.53 | −1.73 | −1.89 | −2.04 | 1.29 |  |
| C/C=C/C(=O)C1=C(C)C=CCC1(C)C [beta-damascenone] | 4.35 | 4.31 | 4.27 | 4.23 | 4.20 | 3.91 | 3.80 | 3.71 | 3.64 | 3.57 | 3.52 | 3.47 | 3.42 | 4.40 |  |
| Oc1ccccc1 [Phenol] | 1.35 | 1.22 | 1.10 | 0.98 | 0.87 | 0.02 | −0.30 | −0.56 | −0.79 | −0.98 | −1.15 | −1.30 | −1.43 |  |  |
| CCCCCC=O [Hexanal] |  |  |  |  |  |  |  |  |  |  |  |  |  |  | log Pow* (P′ 4%) [1]: 1.77; log Pow* (P′ 6%) [1]: 1.68; log Pow* (P′ 8%) [1]: 1.60; log Pow* (P′ 10%) [1]: 1.51; log Pow* (P′ 30%) [1]: 0.87; log Pow* (P′ 40%) [1]: 0.63; log Pow* (P′ 50%) [1]: 0.43; log Pow* (P′ 60%) [1]: 0.27; log Pow* (P′ 70%) [1]: 0.12; log Pow* (P′ 80%) [1]: 0.00; log Pow* (P′ 90%) [1]: −0.12; log Pow* (P′ 100%) [1]: −0.21 |
